What is called IC50 is the concentration that gives 50% inhibition.

Molecules are shown by their SMILES.

This is an account of results in US9006450B2 (Boehringer Ingelheim International GmbH, priority 2010, dated 2015).

The target in the experiment is T1, human ACC2 (Homo sapiens, UniProt O00763).
T1 construct: made in house; host or cells: insect cells (baculoviral expression system)
T1 sequence (O00763 129-2458 limits assumed): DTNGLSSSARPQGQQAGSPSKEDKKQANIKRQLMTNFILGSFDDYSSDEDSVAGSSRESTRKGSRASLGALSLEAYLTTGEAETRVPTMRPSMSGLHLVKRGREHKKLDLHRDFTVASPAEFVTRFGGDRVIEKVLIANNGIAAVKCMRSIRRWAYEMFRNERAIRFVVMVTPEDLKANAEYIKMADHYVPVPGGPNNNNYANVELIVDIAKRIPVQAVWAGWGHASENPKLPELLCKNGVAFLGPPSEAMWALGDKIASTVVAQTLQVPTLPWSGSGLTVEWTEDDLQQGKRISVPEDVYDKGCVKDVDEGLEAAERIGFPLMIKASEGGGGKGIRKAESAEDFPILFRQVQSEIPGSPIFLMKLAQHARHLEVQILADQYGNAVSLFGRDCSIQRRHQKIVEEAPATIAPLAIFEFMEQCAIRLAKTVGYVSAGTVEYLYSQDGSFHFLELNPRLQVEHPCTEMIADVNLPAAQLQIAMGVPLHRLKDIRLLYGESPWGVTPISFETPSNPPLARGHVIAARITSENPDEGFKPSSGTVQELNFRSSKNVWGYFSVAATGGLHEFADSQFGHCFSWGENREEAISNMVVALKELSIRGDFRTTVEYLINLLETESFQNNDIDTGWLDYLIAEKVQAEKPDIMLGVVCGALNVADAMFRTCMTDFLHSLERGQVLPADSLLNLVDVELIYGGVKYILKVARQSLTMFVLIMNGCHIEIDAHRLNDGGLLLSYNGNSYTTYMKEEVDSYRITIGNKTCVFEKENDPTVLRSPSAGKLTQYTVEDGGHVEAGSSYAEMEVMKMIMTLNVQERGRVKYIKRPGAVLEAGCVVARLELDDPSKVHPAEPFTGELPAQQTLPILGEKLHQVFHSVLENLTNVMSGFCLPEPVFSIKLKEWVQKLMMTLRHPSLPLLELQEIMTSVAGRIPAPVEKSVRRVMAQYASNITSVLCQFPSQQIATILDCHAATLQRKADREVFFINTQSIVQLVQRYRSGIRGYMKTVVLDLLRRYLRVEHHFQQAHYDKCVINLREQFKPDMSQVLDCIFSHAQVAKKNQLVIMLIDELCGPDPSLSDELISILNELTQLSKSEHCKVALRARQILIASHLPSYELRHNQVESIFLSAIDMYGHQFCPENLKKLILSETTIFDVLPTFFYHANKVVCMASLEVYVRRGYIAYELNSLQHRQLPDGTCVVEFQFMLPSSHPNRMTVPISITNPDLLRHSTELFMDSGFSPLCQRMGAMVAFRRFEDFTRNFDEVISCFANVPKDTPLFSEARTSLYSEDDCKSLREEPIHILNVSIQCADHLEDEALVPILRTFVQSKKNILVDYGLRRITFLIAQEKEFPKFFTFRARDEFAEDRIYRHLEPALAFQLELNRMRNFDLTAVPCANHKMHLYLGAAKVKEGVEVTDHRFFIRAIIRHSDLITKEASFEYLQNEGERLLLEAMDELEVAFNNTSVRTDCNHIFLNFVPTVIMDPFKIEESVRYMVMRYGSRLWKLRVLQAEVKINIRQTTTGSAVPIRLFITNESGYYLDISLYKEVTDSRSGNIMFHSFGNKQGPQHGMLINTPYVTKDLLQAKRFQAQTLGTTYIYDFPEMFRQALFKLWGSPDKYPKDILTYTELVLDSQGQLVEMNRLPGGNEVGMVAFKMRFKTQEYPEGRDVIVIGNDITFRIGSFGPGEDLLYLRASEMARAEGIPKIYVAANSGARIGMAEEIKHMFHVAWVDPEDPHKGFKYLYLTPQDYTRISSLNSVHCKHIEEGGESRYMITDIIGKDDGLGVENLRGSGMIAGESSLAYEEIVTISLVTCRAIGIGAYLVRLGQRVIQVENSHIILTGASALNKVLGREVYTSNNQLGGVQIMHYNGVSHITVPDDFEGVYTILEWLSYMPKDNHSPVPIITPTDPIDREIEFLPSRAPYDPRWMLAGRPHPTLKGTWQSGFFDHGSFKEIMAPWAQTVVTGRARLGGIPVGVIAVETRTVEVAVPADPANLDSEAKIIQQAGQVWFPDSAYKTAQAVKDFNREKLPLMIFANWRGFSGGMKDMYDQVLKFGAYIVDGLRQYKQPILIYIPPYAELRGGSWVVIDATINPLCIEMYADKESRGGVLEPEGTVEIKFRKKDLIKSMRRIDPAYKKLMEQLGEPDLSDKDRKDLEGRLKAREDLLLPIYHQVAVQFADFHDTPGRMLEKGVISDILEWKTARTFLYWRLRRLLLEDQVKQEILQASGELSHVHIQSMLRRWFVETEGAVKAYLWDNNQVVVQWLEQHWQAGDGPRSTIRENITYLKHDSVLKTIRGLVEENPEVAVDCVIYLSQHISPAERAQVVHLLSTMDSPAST
Briefly: ACC2 assay, spectrophotometric 384 well assay (NADH-linked, coupled lactate dehydrogenase/pyruvate kinase). It is filed as biochemical. Particulars: ACC2 assay, hACC2 construct lacking 128 N-terminal amino acids, 25° C., 340 nm; read-out: IC50. In short, it runs like this: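 ADP output tracked via pyruvate kinase/lactate dehydrogenase NADH oxidation, slope at 340 nm over 15 min, 25° C, with 500 μM ATP and 200 μM each acetyl-CoA and NADH. Enzyme: insect-cell-expressed human ACC2, N-terminal 128 residues deleted; pH 7.5 Tris with citrate, KHCO3. IC50 from four-parameter regression versus vehicle and no-acetyl-CoA controls.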
Consider `CCOc1ccc(N2CCC(c3ccc([C@H](C)NC(=O)Nc4cccnc4)cc3)CC2)cc1` [Example 14.55], for which the IC50 amounted to 1.7 µM.

`CCOc1ccc(N2CCC(c3ccc([C@H](C)NC(=O)Nc4ncccn4)cc3)CC2)cc1` [Example 14.56]: the IC50 came out at 14.7 µM.

As for `CCOc1ccc(N2CCC(c3ccc([C@H](C)NC(=O)Nc4nccs4)cc3)CC2)cc1` [Example 14.57], the IC50 came to 14.2 µM.

Regarding `CCOc1ccc(N2CCC(c3ccc([C@H](C)NC(=O)Nc4ccnnc4)cc3)CC2)cc1` [Example 14.58], the concentration for half-maximal inhibition (IC50) turned out to be 7.1 µM.

On to `CCOc1ccc(N2CCC(c3ccc([C@H](C)NC(=O)Nc4cncnc4)cc3)CC2)cc1` [Example 14.59], for which the IC50 turned out to be 1.5 µM.

Take `CCOc1ccc(N2CCC(c3ccc([C@H](C)NC(=O)NCc4ccncn4)cc3)CC2)cc1` [Example 14.60]: the IC50 was 2.1 µM.

On to `CCOc1ccc(N2CCC(c3ccc([C@H](C)NC(=O)N(C)CCc4cn[nH]c4)cc3)CC2)cc1` [Example 14.61], for which the concentration for half-maximal inhibition (IC50) is 0.53 µM.

With `CCOc1ccc(N2CCC(c3ccc([C@H](C)NC(=O)NCc4cncnc4)cc3)CC2)cc1` [Example 14.62], the IC50 was determined as 13.3 µM.

On to `CCOc1ccc(N2CCC(c3ccc([C@H](C)NC(=O)N4CCOCC4)cc3)CC2)cc1` [Example 14.63], for which the 50% inhibitory concentration (IC50) amounted to 1.6 µM.

In the case of `CCOc1ccc(N2CCC(c3ccc([C@H](C)NC(=O)N(C)Cc4ccn(C)n4)cc3)CC2)cc1` [Example 14.64], the IC50 was determined as 3.8 µM.

In the case of `CCOc1ccc(N2CCC(c3ccc([C@H](C)NC(=O)N(C)CC4CC4)cc3)CC2)cc1` [Example 14.65], the IC50 worked out at 3.7 µM.

As to `CCOc1ccc(N2CCC(c3ccc([C@H](C)NC(=O)N4CCC4)cc3)CC2)cc1` [Example 14.66], the IC50 is 2.2 µM.

With `CCOc1ccc(N2CCC(c3ccc([C@H](C)NC(=O)N(CC)CC)cc3)CC2)cc1` [Example 14.67], the IC50 is 1.9 µM.

Take `CCOc1ccc(N2CCC(c3ccc([C@H](C)NC(=O)N4CCCC4)cc3)CC2)cc1` [Example 14.68]: the IC50 was 7.8 µM.

On to `CCOc1ccc(N2CCC(c3ccc([C@H](C)NC(=O)N4CCCCC4)cc3)CC2)cc1` [Example 14.69], for which the IC50 came out at 12.1 µM.

As for `CCOc1ccc(N2CCC(c3ccc([C@H](C)NC(=O)Nc4ccon4)cc3)CC2)cc1` [Example 14.70], the 50% inhibitory concentration (IC50) was found to be 0.79 µM.

Regarding `COC(=O)Cc1ccc(N2CCC(c3ccc([C@H](C)NC(C)=O)cc3)CC2)cc1` [Example 15.1, (S)-(4-{4-[4-(1-Acetylamino-ethyl)-phenyl]-piperidin-1-yl}-phenyl)-acetic acid methyl ester], the half-inhibitory concentration (IC50) worked out at 2.8 µM.

With `COC(=O)c1cccc(N2CCC(c3ccc([C@H](C)NC(C)=O)cc3)CC2)c1` [Example 15.2], the IC50 amounted to 0.35 µM.

Regarding `CC(=O)N[C@@H](C)c1ccc(C2CCN(c3ccnc(OCc4ccccc4)c3)CC2)cc1` [Example 15.3], the IC50 came out at 0.2 µM.

For the compound `CC(=O)N[C@@H](C)c1ccc(C2CCN(c3ccc(C)nc3)CC2)cc1` [Example 15.5], the IC50 turned out to be 17.7 µM.

Consider `CC(=O)N[C@@H](C)c1ccc(C2CCN(c3ccc4oc(C(C)C)nc4c3)CC2)cc1` [Example 15.6], for which the IC50 came to 0.26 µM.

Turning to `COCc1nc2cc(N3CCC(c4ccc([C@H](C)NC(C)=O)cc4)CC3)ccc2o1` [Example 15.7], the IC50 worked out at 1.5 µM.

Regarding `CC(=O)N[C@@H](C)c1ccc(C2CCN(c3ccc(C(F)(F)F)nc3)CC2)cc1` [Example 15.8], the IC50 turned out to be 8.4 µM.

As for `COc1cncc(N2CCC(c3ccc([C@H](C)NC(C)=O)cc3)CC2)c1` [Example 15.9], the IC50 was 19.9 µM.

As for `CC(=O)N[C@@H](C)c1ccc(C2CCN(c3cnccc3C)CC2)cc1` [Example 15.10], the IC50 is 3.2 µM.

For `CC(=O)N[C@@H](C)c1ccc(C2CCN(c3ccc(-c4cccs4)nc3)CC2)cc1` [Example 15.11], the IC50 was 0.16 µM.

`CC(=O)N[C@@H](C)c1ccc(C2CCN(c3ccc(C(C)(C)C)nc3)CC2)cc1` [Example 15.12]: the IC50 stood at 2.2 µM.

In the case of `CC(=O)N[C@@H](C)c1ccc(C2CCN(c3ccc4oc(C)nc4c3)CC2)cc1` [Example 15.13], the IC50 came to 0.97 µM.

With `CC(=O)N[C@@H](C)c1ccc(C2CCN(c3ccc4oc(C5CC5)nc4c3)CC2)cc1` [Example 15.14], the half-maximal inhibitory concentration (IC50) turned out to be 0.88 µM.

In the case of `CC(=O)N[C@@H](C)c1ccc(C2CCN(c3ccc4nc(C)oc4c3)CC2)cc1` [Example 15.15], the IC50 came to 0.99 µM.

On to `CCOC(=O)c1cc2cc(N3CCC(c4ccc([C@H](C)NC(C)=O)cc4)CC3)ccc2o1` [Example 15.17], for which the 50% inhibitory concentration (IC50) stood at 0.3 µM.

As for `CCOc1ccc(N2CCC(c3ccc([C@H](C)NC(=O)OC)cc3)CC2)c(C#N)c1` [Example 15.18], the IC50 was found to be 0.33 µM.

Turning to `CCC(NC(C)=O)c1ccc(C2CCN(c3ccnc(Oc4ccccc4)c3)CC2)cc1` (stereo not shown) [Example 15.19], the IC50 was 3.9 µM.

As to `CCCOc1ccc(N2CCC(c3ccc(C(CC)NC(C)=O)cc3)CC2)c(OC)c1` (stereo not shown) [Example 15.20], the IC50 stood at 3.9 µM.

As for `CCC(NC(C)=O)c1ccc(C2CCN(c3ccc(OCC(C)C)cc3)CC2)cc1` (stereo not shown) [Example 15.21], the half-maximal inhibitory concentration (IC50) was 1.2 µM.

With `CCCOc1ccc(N2CCC(c3ccc([C@@H](C)NC(C)=O)cc3)CC2)c(OC)c1` [Example 15.23], the 50% inhibitory concentration (IC50) was found to be 6.4 µM.

In the case of `CCOc1ncc(N2CCC(c3ccc([C@H](C)NC(C)=O)cc3)CC2)cn1` [Example 16.1, (S)—N-(1-M{4-[1-(2-Ethoxy-pyrimidin-5-yl)-piperidin-4-yl]-phenyl}-ethyl)-acetamide], the IC50 stood at 1.4 µM.

`COc1ncc(N2CCC(c3ccc([C@H](C)NC(C)=O)cc3)CC2)cn1` [Example 16.2]: the IC50 was determined as 4.8 µM.

As to `CCNc1ncc(N2CCC(c3ccc([C@H](C)NC(C)=O)cc3)CC2)cn1` [Example 16.4], the half-maximal inhibitory concentration (IC50) was 0.62 µM.

On to `CC(=O)N[C@@H](C)c1ccc(C2CCN(c3cnc(OCC4CC4)nc3)CC2)cc1` [Example 16.5], for which the half-maximal inhibitory concentration (IC50) was found to be 2.5 µM.

With `C[C@H](NC(=O)N(C)C)c1ccc(C2CCN(c3cnc(OCC4CC4)nc3)CC2)cc1` [Example 16.6], the IC50 was 0.45 µM.

As for `CCOc1ncc(N2CCC(c3ccc([C@H](C)NC(=O)N(C)C)cc3)CC2)cn1` [Example 16.7], the IC50 was 1.4 µM.

As to `CCOc1ncc(N2CCC(c3ccc([C@H](C)NC(=O)C4CC4)cc3)CC2)cn1` [Example 16.8], the IC50 worked out at 3.9 µM.

Turning to `C[C@H](NC(=O)C1CC1)c1ccc(C2CCN(c3cnc(NCC4CC4)nc3)CC2)cc1` [Example 16.9], the IC50 was 6.7 µM.

As to `CCOc1ncc(N2CCC(c3ccc([C@H](C)NC(C)=O)cc3)CC2)c(OC)n1` [Example 16.10], the IC50 came to 0.93 µM.

Consider `COc1nc(OCC2CC2)ncc1N1CCC(c2ccc([C@H](C)NC(C)=O)cc2)CC1` [Example 16.11], for which the IC50 stood at 1.3 µM.

On to `CCOc1ccc(N2CCC(c3ccc([C@H](C)NS(C)(=O)=O)cc3)CC2)cc1` [Example 17.1, (S)—N-(1-{4-[1-(4-Ethoxy-phenyl)-piperidin-4-yl]-phenyl}-ethyl)-methanesulfonamide], for which the IC50 came to 2.9 µM.

Take `CCOc1ccc(N2CCC(c3ccc([C@H](C)NS(=O)(=O)CC)cc3)CC2)cc1` [Example 17.2]: the half-inhibitory concentration (IC50) stood at 4.2 µM.

On to `CCOc1ccc(N2CCC(c3ccc([C@H](C)NS(=O)(=O)C4CCC4)cc3)CC2)cc1` [Example 17.3], for which the IC50 came to 7.5 µM.

In the case of `CCOc1ccc(N2CCC(c3ccc([C@H](C)NS(=O)(=O)C(F)(F)F)cc3)CC2)cc1` [Example 17.4], the concentration for half-maximal inhibition (IC50) is 11.3 µM.

For `CC(=O)N[C@@H](C)c1ccc(C2CCN(c3ncc(C(=O)N(C)Cc4ccncc4)cn3)CC2)cc1` [Example 18.1, (S)-2-{4-[4-(1-Acetylamino-ethyl)-phenyl]-piperidin-1-yl}-pyrimidine-5-carboxylic acid methyl-pyridin-4-ylmethyl-amide], the concentration for half-maximal inhibition (IC50) is 9.8 µM.

`CC(=O)N[C@@H](C)c1ccc(C2CCN(c3ncc(C(=O)Nc4cccc(F)c4)cn3)CC2)cc1` [Example 18.2]: the IC50 amounted to 1.4 µM.

Turning to `CC(=O)N[C@@H](C)c1ccc(C2CCN(c3ncc(C(=O)Nc4ccc(F)cc4)cn3)CC2)cc1` [Example 18.3], the IC50 turned out to be 0.18 µM.

For the compound `CC(=O)N[C@@H](C)c1ccc(C2CCN(c3ncc(C(=O)N(C)c4ccc(C)cc4)cn3)CC2)cc1` [Example 18.4], the IC50 was 1.8 µM.

For the compound `CC(=O)N[C@@H](C)c1ccc(C2CCN(c3ncc(C(=O)NC4CC4)cn3)CC2)cc1` [Example 18.5], the IC50 turned out to be 1.9 µM.

As to `CC(=O)N[C@@H](C)c1ccc(C2CCN(c3ncc(C(=O)Nc4ccccc4F)cn3)CC2)cc1` [Example 18.6], the IC50 was found to be 0.26 µM.

With `CC(=O)N[C@@H](C)c1ccc(C2CCN(c3ncc(C(=O)Nc4ccccc4C)cn3)CC2)cc1` [Example 18.7], the IC50 was 3.6 µM.

With `CC(=O)N[C@@H](C)c1ccc(C2CCN(c3ncc(C(=O)Nc4cccc(C)c4)cn3)CC2)cc1` [Example 18.8], the IC50 was determined as 0.26 µM.

Turning to `CC(=O)N[C@@H](C)c1ccc(C2CCN(c3ncc(C(=O)N4CCc5ccccc54)cn3)CC2)cc1` [Example 18.9], the IC50 stood at 1.6 µM.

As to `CC(=O)N[C@@H](C)c1ccc(C2CCN(c3ncc(C(=O)N(C)CC4OCCO4)cn3)CC2)cc1` [Example 18.10], the IC50 was determined as 11.5 µM.

Turning to `CC(=O)N[C@@H](C)c1ccc(C2CCN(c3ncc(C(=O)N4CCCCC4)cn3)CC2)cc1` [Example 18.11], the IC50 is 0.74 µM.

In the case of `COc1cccc(NC(=O)c2cnc(N3CCC(c4ccc([C@H](C)NC(C)=O)cc4)CC3)nc2)c1` [Example 18.12], the IC50 was determined as 0.42 µM.

As to `CC(=O)N[C@@H](C)c1ccc(C2CCN(c3ncc(C(=O)NCc4ccccn4)cn3)CC2)cc1` [Example 18.13], the IC50 amounted to 6.1 µM.

`COc1ccccc1CNC(=O)c1cnc(N2CCC(c3ccc([C@H](C)NC(C)=O)cc3)CC2)nc1` [Example 18.14]: the IC50 was 10.2 µM.
